For one data set, the system named is KO TRBP SK-Hep-1 cells. In words: Antiproliferative effect on KO TRBP SK-Hep-1 cells (CCK-8). As to conditions: 48 hours. Format: cell-based, human. On the procedure: (§1) HCCLM3 and SK-Hep-1 cells were seeded into 96-well plates at a density of 10 000 cells per well and allowed to adhere overnight. Subsequently, the cells were treated with the following substances: 0.1% DMSO as the negative control, various concentrations of the test compounds, and 125 μM enoxacin as the positive control. After 48 h of incubation, the original culture medium was removed, and the cells were washed twice with PBS. Then, 100 μL of DMEM culture medium containing 10% CCK-8 (Bimake, USA) was added to each well. The plates were incubated for 30 minutes at 37 °C. To determine the […], measurements were taken at a wavelength of 450 nm using a Varioskan from Thermo Fisher Scientific.

Data set [1] can be described thus: Cytotoxicity against non-tumor Wi-38 cells (CC50, cell count). It counts as cell-based. The following applies: human, Wi-38 cells (non-tumor), 50% cytotoxicity concentration, 72 hours of treatment. On the procedure:
SKOV-3, A2780 and A2780 CIS were cultured and maintained, as previously described,[50] at 37 °C in RPMI 1640 medium (Euroclone) supplemented with 10% fetal bovine serum (FBS; Euroclone), L-glutamine and penicillin/streptomycin (SIGMA-ALDRICH). OVCA433, HEK-293T, HeLa, HCCLM3, SK-Hep-1, MCF-7, A549 and HCT-116 cells were maintained in DMEM medium (Euroclone) containing 10% FBS (Euroclone), L-glutamine and penicillin/streptomycin (SIGMA-ALDRICH). Wi-38 cells were cultured in DMEM medium (Euroclone) supplemented with 10% FBS (Euroclone), L-glutamine and penicillin/streptomycin (SIGMA-ALDRICH), and 1% non-essential amino acids (NEAA; Euroclone). The cultures were maintained in a constant temperature incubator at 37 °C with 5% CO2. […] Once cell adhesion had been promoted, the compounds were added to the culture medium. After 72 hours of treatment, the cells were counted, and the data analyzed by linear regression. Each experiment was carried out three times in triplicate and three separate cell counts were made for each sample. […] Afterwards, the concentration range was narrowed to the relative value obtained in the first evaluation in order to obtain an accurate value.

Data set [2] relates to cisplatin-resistant A2780 cells (A2780 CIS). Briefly: Viable cells of cisplatin-resistant A2780 (A2780 CIS) treated with 33, cisplatin or both. As to conditions: 48 hours. Format: cell-based, human. On the procedure: (§2) A2780 and SKOV-3 cells were treated with 50 μM of 33 for 72 h before RNA and protein extraction and expression analyses. A2780 and A2780 CIS were treated with 33 (30 μM) and/or cisplatin (1 μM, Sigma-Aldrich) for 48 hours while MCF-7, A549 and HCT-116 were treated with 33 (30 μM) for 72 hours. Total cell number and viability have been assessed using Trypan Blue Solution (Thermo Fisher Scientific) and Countess™ 3 Automated Cell Counter (Thermo Fisher Scientific).

The next data set deals with KO TRBP HCCLM3 cells. In words: Antiproliferative effect on KO TRBP HCCLM3 cells (CCK-8). The following applies: 30 μM, 48 hours. It counts as cell-based, human. On the procedure:
as §1

The next data set has as its system MCF-7 (breast cancer). Briefly: Proliferation of MCF-7 cells (trypan blue count). Format: cell-based, human. The following applies: 30 μM, 72 hours. On the procedure:
as §2

“Also recorded” adds a separate entry of the source.

In the case of `O=C(O)c1cn(C2CC2)c2cc(N3CCc4ccccc4C3)c(F)cc2c1=O` [Compound 33, 1-Cyclopropyl-7-(3,4-dihydroisoquinolin-2(1H)-yl)-6-fluoro-4-oxo-1,4-dihydroquinoline-3-carboxylic acid], the “antiproliferative effect on KO TRBP SK-Hep-1 cells” value in the data set on KO TRBP SK-Hep-1 cells (30 μM) is recorded as “no antiproliferative effect”. Besides, the “viability of KO TRBP SK-Hep-1 cells” value with KO TRBP SK-Hep-1 cells (50 μM) was “not affecting”. Half-maximal cytotoxicity in data set [1] (CC50 at 72 h) was put at 143 ± 42.7 µM. Moreover, in data set [2] (30 μM), the “sensitivity of A2780 CIS and A2780 to 33 alone” value is listed as “equal sensitivity”. Besides, the “effect of 33 in combination with cisplatin on A2780 CIS” value in data set [2] (33 30 μM + cisplatin 1 μM) was “synergistic effect; also recorded: sensitized A2780 CIS to cisplatin”. Also, the “antiproliferative effect on KO TRBP HCCLM3 cells” value in the data set with KO TRBP HCCLM3 cells is on record as “no antiproliferative effect”. For the same compound, the “effect on MCF-7 cell proliferation” value in the data set with MCF-7 (breast cancer) is on record as “significant inhibitory effect on cell proliferation”.

The values are drawn from PMC11467779, “New anti-ovarian cancer quinolone derivatives acting by modulating microRNA processing machinery” (RSC Medicinal Chemistry, 2024).
